Data taken from patent US4879311A, “Derivatives of benzoyloxyacetic acid, and preparation and formulations thereof for therapeutic use” (Inverni della Beffa S.p.A., priority 1987, dated 1989).
Where two headings read alike, the source gives them in different places.

Experiments:
[1] = pH of aqueous solution; type: physicochemical; conditions: 1% aqueous solution (Ib)
[2] = tested on: reaction time to heat (hot plate); type: in vivo, mouse; conditions: oral; for Percentages of mice protected at 30 minutes / Percentages of mice protected at 60 minutes: reaction time 15 seconds or more, 55° C.
Description: (§1) The anti-inflammatory and analgesic activity of compound Ib was tested after oral administration in the carrageenin oedema test in the rat (C. A. Winter et al. Proc. Soc. Exp. Biol. Med., 111, 544, 1962), in the phenylquinone writhing test (I. C. Hendershot and J. J. Forsaith, Pharmacol. Exp. Ther., 125, 237, 1959) and in the hot plate test on the mouse (N. B. Eddy and D. J. Leimbach, J. Pharmacol. Exp. Ther., 107, 385, 1953). The activity of the compound was compared with equimolecular doses of sodium meclofenamate. A comparison was also made between the acute toxicity of the two substances by measuring the oral LD 50 on the rat.
The substances under test were administered by a stomach probe to preselected mice. The controls and the treated animals were placed on the hot plate (55° C.) one at a time immediately after treatment. The reaction time to heat, was measured 30 and 60 minutes after treatment. Animals were considered protected when the reaction time was 15 seconds or more.

[3] = tested on: rat; assay: acute toxicity on the rat, oral LD50; type: in vivo; conditions: oral LD50, probit method
Description: as §1
(§2) The two LD 50 values were calculated by the probit method.

[4] = acute toxicity on the rat, oral LD50; type: in vivo; conditions: rat, in vivo, po
Description: as §1, §2

[5] = tested on: carrageenin oedema; assay: carrageenin oedema test in the rat, oral administration; type: in vivo; conditions: rat, oral; for % change of increase of original volume, 1 h / % change of increase of original volume, 2 h / % change of increase of original volume, 3 h / % change of increase of original volume, 4 h / % change of increase of original volume, 5 h: vs controls
Description: as §1
The substances under test, dissolved in distilled water, were administered by a stomach probe 1 hour before subplantar injection of carrageenin (1% in sterile 0.9% NaCl aqueous solution). […]

[6] = tested on: writhing induced by phenylquinone; assay: phenylquinone writhing test, oral administration; type: in vivo, mouse; conditions: oral
Description: as §1
The substances under test were administered by a stomach probe 1 hour before intraperitoneal injection of phenylquinone (2 mg/kg). The abdominal contractions of the treated animals and the controls were counted during every 10 minutes for half an hour.

[7] = tested on: 6-day old air pouch irritated by carrageenan; assay: irritation of 6-day old air pouch by carrageenan in the rat; type: in vivo; conditions: os
Description: (2) Irritation of 6-day old air pouch by carrageenan in the rat (A. D. Sedgwick, Y. M. Sin, A. R. Mackay, A. Al-Duaij and D. A. Willoughby; J. Pharm. Pharmacol.; 36, 171, 1984).
The formation of a dorsal pouch was induced in the rat by dorsal subcutaneous administration of 20 ml of air. 10 ml of air were then injected every day for three consecutive days in order to keep the cavity permeable. Six days after the first injection of air, the dorsal pouch in the animals was treated with 1 ml of 1% carrageenan in physiological solution.
Compound Ib was administered by gastric probe, 24 hours and 1 hour before administration of the irritating agent.
The animals, dividedinto groups of five, were killed 4 hours and 24 hours after the carrageenan. The volume of the exudate and the total number of leucocytes were measured.

[8] = tested on: arachidonic acid oedema; assay: arachidonic acid oedema in the rat, oral administration; type: in vivo; conditions: for change of Increase of Original Volume (in parentheses), 60 min: vs controls
Description: (1) Arachidonic acid oedema in the rat (M. J. Di Martino, G. C. Campbell Jnr., C. E. Wolff and N. Hanna, Agents and Actions; 21, 303, 1987)
Compound Ib was administered by gastric probe one hour before subplantar injection of 0.1 ml of 0.5% arachidonic acid in carbonate buffer (pH 8-8.2).
The volume of the paws of the treated animals and of the control was measured with a plethysmometer immediately and 60 minutes after the irritating agent (peak time of oedema).

[9] = Ib 12.7 mg/kg, sodium meclofenamate 11 mg/kg
[10] = Ib 25.4 mg/kg, sodium meclofenamate 22 mg/kg
[11] = dose corresponding to 10 mg/kg meclofenamic acid (Ib 12.7 mg/kg; sodium meclofenamate 11.0 mg/kg)
[12] = dose corresponding to 10 mg/kg meclofenamic acid
[13] = dose corresponding to 20 mg/kg meclofenamic acid (Ib 25,4 mg/kg; sodium meclofenamate 22,0 mg/kg), **P < 0.01 vs controls
[14] = dose corresponding to 20 mg/kg meclofenamic acid
[15] = Ib 12.7 mg/kg, sodium meclofenamate 11.0 mg/kg
[16] = Ib 25.4 mg/kg, sodium meclofenamate 22.0 mg/kg
[17] = dose corresponding to 10 mg/kg meclofenamic acid (Ib 12.7 mg/kg; sodium meclofenamate 11.0 mg/kg), **P < 0.01 vs controls
[18] = dose corresponding to 20 mg/kg meclofenamic acid (Ib 25.4 mg/kg; sodium meclofenamate 22.0 mg/kg), **P < 0.01 vs controls
[19] = Ib 31.75 mg/kg × 2 (**P < 0.01), sodium meclofenamate 27.5 mg/kg × 2 (*P < 0.05 vs controls), 24 h
[20] = Ib 31.75 mg/kg × 2, sodium meclofenamate 27.5 mg/kg × 2, 4 h, vs controls
[21] = Ib 31.75 mg/kg × 2, sodium meclofenamate 27.5 mg/kg × 2, 24 h, vs controls

Cc1ccc(Cl)c(Nc2ccccc2C(=O)O)c1Cl [Sodium meclofenamate, sodium meclofenamate, reference compound]
pH of aqueous solution (in words) [1]: markedly alkaline pH | activity in the hot plate test (in words) ([2]; mouse): inactive | Percentages of mice protected at 30 minutes [2, 9]: 0% | Percentages of mice protected at 60 minutes [2, 9]: 0% | Percentages of mice protected at 30 minutes [2, 10]: 0% | Percentages of mice protected at 60 minutes [2, 10]: 0% | Slope [3]: 7.402 ± 2.014 | LD50 at 480 h ([4]; male and female rats, 20 days of observation, probit method, read-out: DL50): 127 mg/kg | LD50 at 480 h ([4]; mg/kg meclofenamic acid, read-out: LD50 as corresponding meclofenamic acid): 119 mg/kg | Increase of original volume (m ± s.e.), 1 h [5, 11]: 0.41 ± 0.05 mL | Increase of original volume (m ± s.e.), 2 h [5, 11]: 0.87 ± 0.10 mL | Increase of original volume (m ± s.e.), 3 h [5, 11]: 1.42 ± 0.10 mL | Increase of original volume (m ± s.e.), 4 h [5, 11]: 1.12 ± 0.07 mL | Increase of original volume (m ± s.e.), 5 h [5, 11]: 1.39 ± 0.08 mL | % change of increase of original volume, 1 h [5, 12]: -13% | % change of increase of original volume, 2 h [5, 12]: -8% | % change of increase of original volume, 3 h [5, 12]: -7% | % change of increase of original volume, 4 h [5, 12]: -6% | % change of increase of original volume, 5 h [5, 12]: -10% | Increase of original volume (m ± s.e.), 1 h ([5]; dose corresponding to 20 mg/kg meclofenamic acid (Ib 25,4 mg/kg; sodium meclofenamate 22,0 mg/kg)): 0.36 ± 0.05 mL | Increase of original volume (m ± s.e.), 2 h ([5]; dose corresponding to 20 mg/kg meclofenamic acid (Ib 25,4 mg/kg; sodium meclofenamate 22,0 mg/kg), *P < 0.05): 0.65 ± 0.05 mL | Increase of original volume (m ± s.e.), 3 h [5, 13]: 0.77 ± 0.07 mL | Increase of original volume (m ± s.e.), 4 h [5, 13]: 1.07 ± 0.09 mL | Increase of original volume (m ± s.e.), 5 h [5, 13]: 1.24 ± 0.07 mL | % change of increase of original volume, 1 h [5, 14]: -20% | % change of increase of original volume, 2 h [5, 14]: -32% | % change of increase of original volume, 3 h [5, 14]: -43% | % change of increase of original volume, 4 h [5, 14]: -33% | % change of increase of original volume, 5 h [5, 14]: -25% | anti-inflammatory activity compared with reference (in words) ([5]; vs sodium meclofenamate): behaved in similar manner | minimal effective dose ([5]; read-out: dose at which antagonism of the oedema is statistically significant): 68 µmol/kg | % Protection, 0-10 minutes [6, 15]: 52% | % Protection, 10-20 minutes [6, 15]: 20% | % Protection, 20-30 minutes [6, 15]: 40% | % Protection, total [6, 15]: 43% | % Protection, 0-10 minutes [6, 16]: 60% | % Protection, 10-20 minutes [6, 16]: 33% | % Protection, 20-30 minutes [6, 16]: 46% | % Protection, total [6, 16]: 53% | Writhing (m ± s.e.) during 10-20 minutes [6, 11]: 16.5 ± 1.0 | Writhing (m ± s.e.) during 20-30 minutes [6, 11]: 8.6 ± 0.4 | Writhing (m ± s.e.) during 0-10 minutes [6, 17]: 12.0 ± 1.6 | Writhing (m ± s.e.), total minutes [6, 17]: 34.2 ± 1.5 | Writhing (m ± s.e.) during 10-20 minutes ([6]; dose corresponding to 20 mg/kg meclofenamic acid (Ib 25.4 mg/kg; sodium meclofenamate 22.0 mg/kg)): 13.7 ± 1.5 | Writhing (m ± s.e.) during 0-10 minutes [6, 18]: 10.0 ± 1.1 | Writhing (m ± s.e.) during 20-30 minutes [6, 18]: 7.7 ± 0.8 | Writhing (m ± s.e.), total minutes [6, 18]: 28.0 ± 2.9 | Leucocytes (m ± s.e.), 24 h [7, 19]: 40.14 ± 11.99 × 10^6 | Volume of exudate (m ± s.e.), 24 h [7, 19]: 0.52 ± 0.12 mL | Leucocytes (m ± s.e.), 4 h ([7]; Ib 31.75 mg/kg × 2 (*P < 0.05 vs controls), sodium meclofenamate 27.5 mg/kg × 2, 4 h): 4.36 ± 1.76 × 10^6 | change of leucocytes (in parentheses), 4 h [7, 20]: -2 | change of volume of exudate (in parentheses), 4 h [7, 20]: -6 | change of leucocytes (in parentheses), 24 h [7, 21]: -52 | change of volume of exudate (in parentheses), 24 h [7, 21]: -42 | Volume of exudate (m ± s.e.), 4 h ([7]; dose corresponding to 25 mg/kg meclofenamic acid × 2 (Ib 31.75; sodium meclofenamate 27.5 mg/kg), 4 h): 0.30 ± 0.05 mL | change of Increase of Original Volume (in parentheses), 60 min [8, 9]: -6 | change of Increase of Original Volume (in parentheses), 60 min ([8]; Ib 38.1 mg/kg, sodium meclofenamate 33 mg/kg): -29 | Increase of Original Volume (m ± s.e.), 60 min ([8]; dose corresponding to 10 mg/kg meclofenamic acid (Ib 12.7 mg/kg; sodium meclofenamate 11 mg/kg)): 0.58 ± 0.05 | Increase of Original Volume (m ± s.e.), 60 min ([8]; dose corresponding to 30 mg/kg meclofenamic acid (Ib 38.1 mg/kg, **P < 0.01; sodium meclofenamate 33 mg/kg, *P < 0.05 vs controls)): 0.44 ± 0.06 | statistically significant dose as fraction of the LD50 ([8]; rat, oedema reduced in statistically significant manner): 1/4
